According to US8936667B2, “Aqueous leaching process for recovery of precious metals with addition of di-thiooxamide ligand” (Anglo Operations Limited, priority 2009, dated 2015):
In brackets after ≈: the same amount, converted by molar mass.

Key:
physchem = type: physicochemical
Experimental: Prior to the leach, the ligand is dissolved in water which has been pre-adjusted to the leach pH. […] It was suspected that the ligand became doubly deprotonated at pH 13.5 and above.

[1] = Leaching of Witwatersrand gold ore, parameter studies (Example 2); details: oxygen/permanganate, Eh above 60 mV; 25° C., 0.9 g/l DTO
From the text: A head sample was submitted with every batch of samples in order to minimise errors caused by discrepancies in analysis among batches. The metal extractions for a particular batch of samples were therefore calculated using the head sample analysis from the same batch.
Deionised water was used in all preparation, dissolution, leach and washing steps.
The leach procedure was as follows:
The required amounts of ligand and alkaline water were mixed in a jacketed leach reactor until the ligand was fully dissolved. The ore was then added to the solution (unless otherwise specified, initial solids concentration was 17% m/m) and the reactor lid was fitted on. A stirring impeller, pH and (Ag/AgCl) redox electrodes, titration dispensing tube, temperature probe and gas distribution tube (if oxygen was used) were fitted into ports in the lid. The ore was then leached for the required amount of time. A water bath was used to maintain the leach temperature for the duration of the leach. The leach pH was controlled with an autotitrator. If oxygen was the oxidant, a mass flow controller was used to control oxygen-flow into the solution. At the end of the leach period, the slurry was filtered and the residue was given at least two water washes using water of the same pH as the leach solution, followed by a final wash with deionised water. […]

Q: Which Solubility in water (physchem) does the source give for `NC(=S)C(N)=S` [DTO, dithiooxamide] here?
A: does not have good solubility in water

Q: And the “Solubility of the ligand” value (physchem)?
A: extremely low

Q: What about the pKa (physchem) of the same molecule?
A: 11

Q: What about the solubility (physchem; pH 12, aqueous buffer, thermodynamic from solid) of the same molecule?
A: ~900 µg/mL (≈ 7.49 mM)

Q: What about the “Dissolution of ligand in water pre-adjusted to leach pH” value (physchem; pH 13.5 to 14 compared with pH 11 to 13) of the same molecule?
A: dissolved far more readily

Q: What about the “Leach time to maximum gold extraction” value [1] of the same molecule?
A: 4 h
